Measurements published in PubChem BioAssay (NCI).
“And” between values parts separate entries of the source, which are not always exact repeats. Identical values can stand only once.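 Five concentrations, 48 hours, 96-well plates. GI50 marks 50% less growth. At the TGI there is no net growth.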

What was measured:
Assay in all cases: NCI-60 cell line screen, 48 h
OVCAR-5 ovarian = tested on: OVCAR-5 ovarian
ACHN renal = tested on: ACHN renal
SR leukemia = tested on: SR leukemia
HL-60(TB) leukemia = tested on: HL-60(TB) leukemia
HT29 colon = tested on: HT29 colon
786-0 renal = tested on: 786-0 renal
EKVX NSCLC = tested on: EKVX NSCLC
LOX IMVI melanoma = tested on: LOX IMVI melanoma
DU-145 prostate = tested on: DU-145 prostate
COLO 205 colon = tested on: COLO 205 colon

Compound | TGI (OVCAR-5 ovarian) [µM] | TGI (ACHN renal) | TGI (SR leukemia) [µM] | TGI (HL-60(TB) leukemia) [µM] | TGI (HT29 colon) [µM] | TGI (786-0 renal) | TGI (EKVX NSCLC) | TGI (LOX IMVI melanoma) | TGI (DU-145 prostate) [µM] | TGI (COLO 205 colon) | GI50 (OVCAR-5 ovarian) [µM] | GI50 (ACHN renal) [µM] | GI50 (LOX IMVI melanoma) [µM] | GI50 (786-0 renal) [µM] | GI50 (EKVX NSCLC) [µM] | GI50 (HL-60(TB) leukemia) [µM] | GI50 (HT29 colon) [µM] | GI50 (DU-145 prostate) [µM] | GI50 (COLO 205 colon) [µM]
COc1ccc2nc3ccccc3c(NCCN(CCCl)CCCl)c2c1 | 2.49 | 2.53 µM | 0.379 | 1.1 | 61.1 | 2.4 µM | 8.02 µM | – | – | – | – | – | – | – | – | – | – | – | –
CC(C)C1=CC2=C(C(=O)C1=O)C13CCCC(C)(C)C1CC2OC3=O (stereo not given) | 59.7 | 38.6 µM | – | 36.3 | 26.3 | 31.9 µM | 31.7 µM | 39.7 µM | 44.9 | 34.8 µM | – | – | – | – | – | – | – | – | –
N#CCCN(c1ccc(C=O)cc1)S(=O)(=O)c1ccccc1 | > 100 | > 100 µM | > 100 | > 100 | > 100 | > 100 µM | > 100 µM | > 100 µM | – | – | – | – | – | – | – | – | – | – | –
CSC1=Nc2ccccc2N=C(c2ccccc2)C1 | > 100 | > 100 µM | > 100 | 34.9 | > 100 | > 100 µM | > 100 µM | 32.2 µM | – | 51.8 µM | – | – | – | – | – | – | – | – | –
O=C(CC(=O)c1cccc([N+](=O)[O-])c1)C(=O)Nc1ccccc1 | > 100 | > 100 µM | – | > 100 | > 100 | > 100 µM | > 100 µM | > 100 µM | – | – | – | – | – | – | – | – | – | – | –
CCN(CC)C(=O)CC12CCCCC1=Nc1ccccc12 (stereo not given) | > 100 | > 100 µM | – | > 100 | > 100 | > 100 µM | > 100 µM | > 100 µM | – | > 100 µM | – | – | – | – | – | – | – | – | –
CC[As](CC)SCC1OC(OC(C)=O)C(OC(C)=O)C(OC(C)=O)C1OC(C)=O (stereo not given) | 32.4 | 31.5 µM | 75.4 | 19.2 | 54 | 28.1 µM | 37.2 µM | 33.6 µM | – | 10 µM | – | – | – | – | – | – | – | – | –
O=C(CC1(O)C(=O)Nc2ccccc21)c1ccccc1O (stereo not given) | > 100 | > 100 µM | – | > 100 | > 100 | > 100 µM | > 100 µM | > 100 µM | – | > 100 µM | – | – | – | – | – | – | – | – | –
CCCCCCCCCC[C@H](O)[C@H]1CC[C@@H]([C@@H](O)CC[C@H](O)[C@@H]2CCC(CCCCCCC[C@@H](O)CC3=C[C@H](C)OC3=O)O2)O1 (stereo not given in full) | 28.4 | 4.47 µM and 15.7 µM | – | 4.95 | 3.5 | 3.64 µM and 20.7 µM | 6.86 µM and 22.4 µM | 2.18 µM and 10 µM | – | 4.38 µM and 6 µM | 12 | 2.15 | 0.0764 | 4.9 | 5.17 | – | – | – | –
COc1cc(N2CCC(N)CC2)ccc1Nc1ncc(Cl)c(-c2c[nH]c3ccccc23)n1 | 2.11 | 1.94 µM | – | 2.75 | 1.43 | 1.95 µM | – | 1.58 µM | 1.88 | 0.269 µM | 0.137 | 0.292 | 0.226 | 0.546 | – | 0.0412 | 0.0343 | 0.34 | 0.0248
O=C(NN1C(=O)CSC1c1c(Cl)cccc1Cl)C(O)c1ccccc1 (stereo not given) | > 100 | > 100 µM | – | – | > 100 | > 100 µM | > 100 µM | > 100 µM | > 100 | > 100 µM | > 100 | 28.4 | 64.7 | 69.3 | 59.6 | – | 33.1 | > 100 | 34.1
